Test results from patent US6911416B2, “Substituted N-benzoyl-n′(tetrazolylphenyl)-ureas and their use as pest control agents” (priority 2000, dated 2005).

Test system: not listed separately
Experiment: logP (pH2) determination by HPLC, EEC directive 79/831 Annex V. A8
Type: physicochemical
Conditions: pH 2
In the case of `O=C(NC(=O)c1c(F)cccc1F)Nc1ccc(-c2nnn(-c3ccccc3)n2)cc1Cl` [Example 19], the “logP (pH2) or m.p. (° C.)” value is reported as 4.63.
For “N-(2,6-difluorobenzoyl)-N′-[2-chloro-4-(1-methyl-tetrazol-5-yl]-urea [Example 3]”, the “log P(pH2)” value was 2.31.

Same assay, conditions: pH2; Table 1, compounds of formula (I); only decimal values are logP
With `O=C(NC(=O)c1c(F)cccc1F)Nc1ccc(Cl)cc1-c1nn[nH]n1` [Example 6] the “logP (pH2)” value was 2.16.
With `CC(C)(C)n1nnc(-c2ccc(NC(=O)NC(=O)c3c(F)cccc3F)cc2Cl)n1` [Example 35] the “logP (pH2)” value was 3.68.
In the case of `Cn1nnc(-c2ccc(NC(=O)NC(=O)c3c(F)cccc3F)c(Cl)c2)n1` [Example 5], the “logP (pH2)” value is reported as 2.88.
With `O=C(NC(=O)c1c(F)cccc1F)Nc1cc(Cl)c(-c2nn[nH]n2)cc1Cl` [Example 7] the “logP (pH2)” value was 2.30.
With `CC(C)(C)n1nnc(-c2cc(Cl)ccc2NC(=O)NC(=O)c2c(F)cccc2F)n1` [Example 11] the “logP (pH2)” value was 4.20.

Same assay, conditions: pH2; Table 2, tetrazolylanilines of formula (III)
For `CCCn1nnc(-c2ccc(N)c(Cl)c2)n1` [III-12], the “logP (pH2)” value was 2.52.
With `CC(C)(C)n1nnc(-c2ccc(N)cc2)n1` [III-23] the “logP (pH2)” value was 1.69.
With `CC(C)Cn1nnc(-c2ccc(N)c(Cl)c2)n1` [III-17] the “logP (pH2)” value was 2.95.
With `Nc1ccc(-c2nnnn2C(F)F)c(Cl)c1` [III-49] the “logP (pH2)” value was 1.81.
With `CC(C)(C)n1nnc(-c2ccc(N)c(Cl)c2)n1` [III-26] the “logP (pH2)” value was 2.94.
In the case of `CC(C)(C)n1nnc(-c2ccc(N)cc2F)n1` [III-32], the “logP (pH2)” value is reported as 2.14.
For `Nc1cc(Cl)c(-c2nn[nH]n2)cc1Cl` [III-8], the “logP (pH2)” value was 1.16.
In the case of `Cc1cc(-c2nn[nH]n2)cc(Cl)c1N` [III-5], the “logP (pH2)” value is reported as 1.20.
In the case of `CC(C)Cn1nnc(-c2cc(Cl)c(N)c(Cl)c2)n1` [III-20], the “logP (pH2)” value is reported as 3.78.
In the case of `Nc1ccc(-c2nnn(C(F)F)n2)cc1Cl` [III-14], the “logP (pH2)” value is reported as 2.08.
In the case of `CC(C)(C)n1nnc(-c2cc(Cl)c(N)c(Cl)c2)n1` [III-19], the “logP (pH2)” value is reported as 3.81.
With `Nc1ccc(-c2nnnn2C(F)F)cc1` [III-47] the “logP (pH2)” value was 1.24.
With `CC(C)(C)n1nnc(-c2ccc(N)cc2Cl)n1` [III-31] the “logP (pH2)” value was 2.42.
In the case of `Nc1cc(Cl)c(-c2nnnn2C(F)F)cc1Cl` [III-29], the “logP (pH2)” value is reported as 2.36.
For `Nc1cc(Cl)c(-c2nnn(C(F)F)n2)cc1Cl` [III-28], the “logP (pH2)” value was 2.69.
With `Nc1ccc(-c2nnn(C(F)F)n2)c(F)c1` [III-50] the “logP (pH2)” value was 1.84.
With `Nc1ccc(-c2nn[nH]n2)c(Cl)c1` [III-9] the “logP (pH2)” value was 1.53.
For `Cn1nnc(-c2ccc(N)c(Cl)c2)n1` [III-6], the “logP (pH2)” value was 1.70.
For `CCOCn1nnc(-c2ccc(N)c(Cl)c2)n1` [III-11], the “logP (pH2)” value was 2.34.
In the case of `Nc1ccc(-c2nnn(-c3ccccc3)n2)cc1Cl` [III-15], the “logP (pH2)” value is reported as 3.28.
In the case of `COC(=O)Cn1nnc(-c2ccc(N)c(Cl)c2)n1` [III-10], the “logP (pH2)” value is reported as 1.92.
For `Nc1c(Cl)cc(-c2nn[nH]n2)cc1Cl` [III-25], the “logP (pH2)” value was 1.40.
With `Nc1ccc(-c2nnn(C(F)F)n2)c(Cl)c1` [III-48] the “logP (pH2)” value was 2.09.
With `Nc1ccc(-c2nnn(CCC(F)=C(F)F)n2)cc1Cl` [III-18] the “logP (pH2)” value was 2.68.
With `Nc1ccc(-c2nnn(C(F)F)n2)cc1` [III-46] the “logP (pH2)” value was 1.49.
In the case of `CC(=O)OCCn1nnc(-c2ccc(N)c(Cl)c2)n1` [III-24], the “logP (pH2)” value is reported as 1.92.
For `CCCn1nnc(-c2cc(Cl)c(N)cc2Cl)n1` [III-22], the “logP (pH2)” value was 2.75.
In the case of `Nc1ccc(-c2nnnn2C(F)F)cc1Cl` [III-16], the “logP (pH2)” value is reported as 1.92.
For `Nc1ccc(Cl)cc1-c1nn[nH]n1` [III-7], the “logP (pH2)” value was 1.50.
With `CC(C)Cn1nnc(-c2cc(Cl)c(N)cc2Cl)n1` [III-21] the “logP (pH2)” value was 3.15.

Same assay, conditions: pH 2; pH2; HPLC gradient acetonitrile/0.1% aqueous phosphoric acid; values in preparation examples; read-out: log P(pH2)
Compound `Nc1ccc(-c2nn[nH]n2)cc1Cl` [5-(3-chloro-4-aminophenyl)-tetrazole] has a chromatographic logP of 1.
With `O=C(NC(=O)c1c(F)cccc1F)Nc1ccc(-c2nnn(C3CCCCO3)n2)cc1Cl` (centres unmarked) [Example 2, N-(2,6-difluorobenzoyl)-N′-[2-chloro-4-(2-tetrahydropyran-2-yl-tetrazol-5-yl)-phenyl]-urea] the chromatographic logP was 3.72.
With `Cn1nnnc1-c1ccc(N)c(Cl)c1` [1-methyl-(3-chloro-4-aminophenyl)-tetrazole] the chromatographic logP was 1.17.
Compound `Nc1ccc(-c2nnn(Cc3ccc(Br)cc3)n2)cc1Cl` [Example b, 5-(3-chloro-4-aminophenyl)-2-(4-bromobenzyl)-tetrazole] has a chromatographic logP of 3.52.
For `O=C(NC(=O)c1c(F)cccc1F)Nc1ccc(-c2nn[nH]n2)cc1Cl` [Example 1, N-(2,6-difluorobenzoyl)-N′-(2-chloro-4-tetrazol-5-yl-phenyl)-urea], the chromatographic logP was 2.13.
Compound `CC(C)(C)n1nnc(-c2cc(Cl)ccc2N)n1` [Example a, 5-(2-amino-5-chlorophenyl)-2-tert-butyl-tetrazole] has a chromatographic logP of 3.58.

Test system: fall armyworm (Spodoptera frugiperda) caterpillars
Experiment: Spodoptera frugiperda test (dipped cabbage leaves)
Type: in vivo
Conditions: active compound concentration 0.1%, after 7 days, cabbage leaves (Brassica oleracea)
Description: Spodoptera frugiperda Test
(§1) To produce a suitable active compound preparation, 1 part by weight of active compound is mixed with the stated amounts of solvent and emulsifier, and the concentrate is diluted with emulsifier-containing water to the desired concentration.
Cabbage leaves (Brassica oleracea) are treated by dipping into the active compound preparation of the desired concentration and are populated with fall armyworm (Spodoptera frugiperda) caterpillars while the leaves are still moist.
(§2) After the desired period, the destruction is determined in %. 100% means that all the caterpillars have been killed; 0% means that none of the caterpillars have been killed.
Work on `O=C(NC(=O)c1c(F)cccc1F)Nc1ccc(-c2nnn(C(F)F)n2)cc1Cl` [Example 18] yielded a destruction of 100%.
Work on `CCCn1nnc(-c2ccc(NC(=O)NC(=O)c3c(F)cccc3F)c(Cl)c2)n1` [Example 15] yielded a destruction of 100%.
Work on `Cn1nnc(-c2ccc(NC(=O)NC(=O)c3c(F)cccc3F)c(Cl)c2)n1` [Example 5] yielded a destruction of 100%.
`CC(C)(C)n1nnc(-c2ccc(NC(=O)NC(=O)c3c(F)cccc3Cl)c(Cl)c2)n1` [Example 10] showed a destruction of 100%.
In the case of `CCOCn1nnc(-c2ccc(NC(=O)NC(=O)c3c(F)cccc3F)c(Cl)c2)n1` [Example 14], the destruction is reported as 100%.
In the case of `CC(C)(C)n1nnc(-c2ccc(NC(=O)NC(=O)c3c(F)cccc3F)c(Cl)c2)n1` [Example 4], the destruction is reported as 100%.
With `O=C(NC(=O)c1c(F)cccc1F)Nc1ccc(-c2nnnn2C(F)F)cc1Cl` [Example 20] the destruction was 100%.
Work on `CC(C)(C)n1nnc(-c2cc(Cl)c(NC(=O)NC(=O)c3c(F)cccc3F)cc2Cl)n1` [Example 16] yielded a destruction of 100%.

Test system: fall armyworm (Spodoptera exigua) caterpillars
Experiment: Spodoptera exigua test (dipped cabbage leaves)
Type: in vivo
Conditions: active compound concentration 0.1%, after 6 days, cabbage leaves (Brassica oleracea)
Description: as §1
Cabbage leaves (Brassica oleracea) are treated by dipping into the active compound preparation of the desired concentration and are populated with fall armyworm (Spodoptera exigua) caterpillars while the leaves are still moist.
as §2
`CC(C)(C)n1nnc(-c2ccc(NC(=O)NC(=O)c3c(F)cccc3F)c(Cl)c2)n1` [Example 4] gave a destruction of 100%.

Test system: Heliothis virescens
Experiment: Heliothis virescens test (dipped soya shoots)
Type: in vivo
Conditions: active compound concentration 0.1%, after 6 days, soya shoots (Glycine max)
Description: as §1
Soya shoots (Glycine max) are treated by dipping into the active compound preparation of the desired concentration and are populated with Heliothis virescens while the leaves are still moist.
as §2
For `CC(C)(C)n1nnc(-c2ccc(NC(=O)NC(=O)c3c(F)cccc3F)c(Cl)c2)n1` [Example 4], the destruction was 100%.

Test system: mustard beetle (Phaedon cochleariae) larvae
Experiment: Phaedon larvae test (dipped cabbage leaves)
Type: in vivo
Conditions: active compound concentration 0.1%, after 7 days, cabbage leaves (Brassica oleracea)
Description: as §1
Cabbage leaves (Brassica oleracea) are treated by dipping into the active compound preparation of the desired concentration and are populated with mustard beetle (Phaedon cochleariae) larvae while the leaves are still moist.
After the desired period, the destruction is determined in %. 100% means that all the beetle have been killed; 0% means that none of the beetle larvae have been killed.
With `O=C(NC(=O)c1c(F)cccc1F)Nc1ccc(-c2nnn(C(F)F)n2)cc1Cl` [Example 18] the destruction was 100%.
In the case of `CC(C)(C)n1nnc(-c2ccc(NC(=O)NC(=O)c3c(F)cccc3Cl)c(Cl)c2)n1` [Example 10], the destruction is reported as 100%.
For `CC(C)(C)n1nnc(-c2ccc(NC(=O)NC(=O)c3c(F)cccc3F)c(Cl)c2)n1` [Example 4], the destruction was 100%.
For `O=C(NC(=O)c1c(F)cccc1F)Nc1ccc(-c2nnnn2C(F)F)cc1Cl` [Example 20], the destruction was 100%.
In the case of `CC(C)(C)n1nnc(-c2cc(Cl)c(NC(=O)NC(=O)c3c(F)cccc3F)cc2Cl)n1` [Example 16], the destruction is reported as 100%.

Test system: diamond-back moth (Plutella xylostella) caterpillars
Experiment: Plutella test (dipped cabbage leaves)
Type: in vivo
Conditions: active compound concentration 0.1%, after 6 days, cabbage leaves (Brassica oleracea)
Description: as §1
Cabbage leaves (Brassica oleracea) are treated by dipping into the active compound preparation of the desired concentration and are populated with diamond-back moth (Plutella xylostella) caterpillars while the leaves are still moist.
as §2
`CC(C)(C)n1nnc(-c2ccc(NC(=O)NC(=O)c3c(F)cccc3F)c(Cl)c2)n1` [Example 4] showed a destruction of 100%.
